# Source: US20070026071A1, “Magnesium salt proton pump inhibitor dosage forms” (QPharma, LLC, priority 2005, published 2007)
# Read-outs that look alike come from different tables or passages of the source.
# Legend:
# [1] = Phase solubility study in pH 6.8 buffer (simulated intestinal fluid) and purified water; format: physicochemical; details: for Solubility: Active content equivalent to base in pH 6.8 buffer / Solubility: Active content equivalent to base in purified water: ambient temperature (approx. 22° C.), shaken approx. 30 minutes
# Protocol: In this study the solubility of Omeprazole Magnesium Trihydrate and Esomeprazole Magnesium Dihydrate active materials in pH 6.8 buffer and purified water was performed. […] A pH 6.8 buffer is prepared as described under the monograph of Omeprazole Delayed Release capsules for dissolution test in United States Pharmacopoeia. Purified water and pH 6.8 buffer were used at ambient temperature (approx. 22° C.).
# Samples of actives and tablet dosage form powders were used in the study. Each sample contains approx. 200 mg base equivalent Omeprazole and Esomeprazole as salts and such samples were transferred in to a centrifuge tube containing 20 mL of appropriate medium. Centrifuge tubes containing these suspensions were shaken for approx. 30 minutes on a wrist action shaker and samples were initially filtered through Whatman filter paper and subsequently filtered through 0.45 micron PTFE cartridge filters. The samples were further diluted by pipetting 1.0 mL in to 100 mL volumetric flasks and made up to the volume with appropriate medium. The optical density values were measured using a suitable UV-Visible spectrophotometer at 275 nm wavelength.
# [2] = 25° C., cited from earlier work
# [3] = from commercially marketed dosage forms; cited from earlier work
SMILES,Solubility: Active content equivalent to base in pH 6.8 buffer [1],fold increased solubility by the fluid bed process as compared to the active when tested alone ([1]; purified water),Solubility: Active content equivalent to base in purified water ([1]; purified water),percent bioavailability [3],further results
COc1ccc2[n-]c([S@@+]([O-])Cc3ncc(C)c(OC)c3C)nc2c1.COc1ccc2[n-]c([S@@+]([O-])Cc3ncc(C)c(OC)c3C)nc2c1.O.O.[Mg+2] [Esomeprazole Magnesium Dihydrate],1.17 mg/mL,approx. 1.6 fold,5020 µg/mL,–,–
"Cc1c(OCC(F)(F)F)ccnc1C[S+]([O-])c1nc2ccccc2[nH]1 (stereo not shown) [Lansoprazole, 2-[[[3-methyl-4-(2,2,2-trifluroethoxy)-2-pyridyl]methyl]sulfinyl]benzimidazole]",–,–,–,80-85%,degradation half-life in aqueous solution ([2]; pH 5.0): approximately 0.5 hour; degradation half-life in aqueous solution ([2]; pH 7.0): approximately 18 hours
COc1ccc2[n-]c([S+]([O-])Cc3ncc(C)c(OC)c3C)nc2c1.COc1ccc2[n-]c([S+]([O-])Cc3ncc(C)c(OC)c3C)nc2c1.O.O.O.[Mg+2] (stereo not shown) [Omeprazole Magnesium Trihydrate],0.31 mg/mL,approx. 10 fold,260 µg/mL,–,fold increased solubility by the fluid bed process as compared to the active when tested alone ([1]; pH 6.8 buffer (simulated intestinal fluid)): 4 fold
COc1ccnc(C[S+]([O-])c2nc3ccc(OC(F)F)cc3[nH]2)c1OC (stereo not shown) [Pantoprazole],–,–,–,77%,–
COCCCOc1ccnc(C[S+]([O-])c2nc3ccccc3[nH]2)c1C (stereo not shown) [Rabeprazole],–,–,–,52%,–
"COc1ccc2[nH]c([S+]([O-])Cc3ncc(C)c(OC)c3C)nc2c1 (stereo not shown) [omeprazole, 2-[2-(3,5-dimethyl-4-methoxy)-pyridylmethylsulfinyl]-(5-methoxy)-benzimidazole]",–,–,–,30-40%,–
